Measured values published in US4190575A, “Polypeptides related to somatostatin” (American Home Products Corporation, priority 1977, dated 1980).
Like-named read-outs stand apart in the source and are kept apart here. Bridge positions count the residues as written; N and C are the ends. Square brackets hold non-standard residues; d marks the D form. Peptide text beside a SMILES is read from it.

Tests used:
Format in all cases: in vivo
growth hormone (GH) = assay: Arginine-stimulated growth hormone (GH) in Nembutal-treated rats, radioimmunoassay; parameters: GH: reference not given here; settings: for GH: albino male rats, *p<0.01
Protocol: (§1) The biological activity of the peptides of Examples 2 and 4 were determined by the following procedure:
(§2) Albino male rats are administered Nembutal intraperitoneally at a dose of 50 milligrams per kilogram. Fifteen minutes later a subcutaneous injection of the test compound of physiological saline is administered. Ten minutes later 0.5 milliliters of arginine (300 milligrams per milliliter, pH 7.2) is injected into the heart. Five minutes after receipt of the arginine the rats are decapitated and blood is collected into trasylol-EDTA. An appropriate aliquot is assayed for growth hormone (GH), insulin, and glucagon by radioimmunoassay.

insulin = assay: Arginine-stimulated insulin in Nembutal-treated rats, radioimmunoassay; parameters: effect on insulin levels: dose or concentration left out as unconfirmed; settings: for Insulin: albino male rats
Protocol: as §1, §2

glucagon = assay: Arginine-stimulated glucagon in Nembutal-treated rats, radioimmunoassay; settings: for Glucagon: albino male rats, *p<0.01
Protocol: as §1, §2

GH secretion = assay: Duration of effect on GH secretion in rats treated with Nembutal; parameters: duration of significant inhibition of GH: dose or concentration left out as unconfirmed
Protocol: The peptides of Examples 2 and 4 were also tested for duration of their effect on GH secretion in rats treated with Nembutal.

[1] = dose 200 ug/kg subcutaneous, blood 15 min after compound, 5 min after arginine
[2] = dose 200 ug/kg subcutaneous, blood 15 min after compound, 5 min after arginine, *p<0.01

| Molecule | GH (growth hormone (GH); dose 40 ug/kg subcutaneous) [ng/mL] | GH (growth hormone (GH); [1]) [ng/mL] | reducing growth hormone (growth hormone (GH); dose of 40 mg/kg) | Insulin (insulin; dose 40 ug/kg subcutaneous) [μU/ml.] | Insulin (insulin; [2]) [μU/ml.] | effect on insulin levels (insulin; dose of 40) | Glucagon (glucagon; dose 40 ug/kg subcutaneous) [pg/mL] | Glucagon (glucagon; [1]) [pg/mL] | reducing glucagon (glucagon; dose of 40 mg/kg) | GH (growth hormone (GH); dose 50 ug/kg subcutaneous) [ng/mL] | reducing growth hormone (growth hormone (GH); dose of 50 mg/kg) | Insulin (insulin; dose 50 ug/kg subcutaneous) [μU/ml.] | effect on insulin levels (insulin; dose of 50) | inhibition of GH at 2 and 4 hours (GH secretion; at 2 and 4 hours) | reducing glucagon (glucagon) | Glucagon (glucagon; dose 50 ug/kg subcutaneous) [pg/mL] | duration of significant inhibition of GH (GH secretion; (S.C.)) |
| --- | --- | --- | --- | --- | --- | --- | --- | --- | --- | --- | --- | --- | --- | --- | --- | --- | --- |
| C[C@@H](O)[C@@H]1NC(=O)[C@H](Cc2ccccc2)NC(=O)[C@H]([C@@H](C)O)NC(=O)[C@H](CCCCN)NC(=O)[C@@H](Cc2c[nH]c3ccccc23)NC(=O)[C@H](Cc2ccccc2)NC(=O)[C@H](Cc2ccccc2)NC(=O)[C@H](CCC(=O)O)NC(=O)[C@H](CCCNC(=N)N)NC(=O)[C@@H](N)CSSC[C@@H](C(=O)O)NC(=O)[C@H](CO)NC1=O [Example 2, L-Cysteinyl-L-arginyl-L-glutamyl-L-phenylalanyl-L-phenylalanyl-D-tryptophyl-L-lysyl-L-threonyl-L-phenylalanyl-L-threonyl-L-seryl-L-cysteine cyclic (1-12) disulfide] (H-CREFF[dW]KTFTSC-OH; disulfide 1-12) | 28 ± 5 | 42 ± 6 | effective agents for reducing growth hormone | 158 ± 57 | 115 ± 16 | without materially affecting insulin levels | 12 ± 2 | 1.5 ± 1 | effective agents for reducing growth hormone and glucagon |  |  |  |  |  |  |  |  |
| C[C@@H](O)[C@@H]1NC(=O)[C@H](Cc2ccccc2)NC(=O)[C@H]([C@@H](C)O)NC(=O)[C@H](CCCCN)NC(=O)[C@@H](Cc2c[nH]c3ccccc23)NC(=O)[C@H](Cc2ccccc2)NC(=O)[C@H](Cc2ccccc2)NC(=O)[C@H](CCC(=O)O)NC(=O)[C@H](Cc2c[nH]cn2)NC(=O)[C@@H](N)CSSC[C@@H](C(=O)O)NC(=O)[C@H](CO)NC1=O [Example 4, L-Cysteinyl-L-histidyl-L-glutamyl-L-phenylalanyl-L-phenylalanyl-D-tryptophyl-L-lysyl-L-threonyl-L-phenylalanyl-L-threonyl-L-seryl-L-cysteine cyclic (1-12) disulfide] (H-CHEFF[dW]KTFTSC-OH; disulfide 1-12) |  | 107 ± 29 |  |  | 205 ± 36 |  |  | 4 ± 2 |  | 84 ± 17 | effective agents for reducing growth hormone | 322 ± 40 | without materially affecting insulin levels | no significant inhibition of GH | effective agents for reducing growth hormone and glucagon | 10 ± 4 |  |
| tert-Butyloxycarbonyl-S-p-methoxybenzyl-L-cysteinyl-N^gn -tosyl-L-arginyl-γ-benzyl-L-glutamyl-L-phenylalanyl-L-phenylalanyl-D-tryptophyl-N^ε -2-chloro-benzyloxycarbonyl-L-lysyl-O-benzyl-L-threonyl-L-phenylalanyl-O-benzyl-L-threonyl-O-benzyl-L-seryl-S-p-methoxybenzyl-L-cysteine hydroxymethyl-polystyrene ester [Example 1] |  |  |  |  |  |  |  |  |  |  |  |  |  |  |  |  | at least 4 hours |
